Among the data in patent publication EP0497091A1, “Bridged cyclic ketal derivatives” (GLAXO GROUP LIMITED, priority 1991, dated 1992) are IC50 values, retold here.

Where two headings read alike, the source gives them in different places. A value given as a limit tells only on which side of the number the result lay.

This assay concerns the target T1, squalene synthase (Rattus norvegicus, UniProt Q02769).
T1 construct: from tissue; host or cells: rat liver homogenate
T1 sequence (Q02769 1-416): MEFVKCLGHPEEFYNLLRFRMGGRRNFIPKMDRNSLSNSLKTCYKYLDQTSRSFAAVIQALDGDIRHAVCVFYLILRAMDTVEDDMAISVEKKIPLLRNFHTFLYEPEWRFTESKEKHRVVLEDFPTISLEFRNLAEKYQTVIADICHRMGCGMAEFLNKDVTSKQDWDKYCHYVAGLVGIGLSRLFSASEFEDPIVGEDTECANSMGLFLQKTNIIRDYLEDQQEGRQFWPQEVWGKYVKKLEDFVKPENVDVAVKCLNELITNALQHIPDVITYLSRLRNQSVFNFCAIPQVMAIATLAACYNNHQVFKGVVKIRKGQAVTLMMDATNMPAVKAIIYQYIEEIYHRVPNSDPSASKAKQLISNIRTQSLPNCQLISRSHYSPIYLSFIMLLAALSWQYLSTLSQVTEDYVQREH
Put plainly: Inhibition of squalene synthase ([14C]squalene production from [2-14C]farnesylpyrophosphate). Type of assay: biochemical. The source says:
A. Biller et al. in J. […] [¹⁴C]squalene is separated from unreacted substrate on thin layer chromatography plates and determined by liquid scintillation counting. […] Acta, Volume 877, 50-60 (1986) and modified to include measurement of cholesterol by high performance liquid chromatography (h.p.l.c.). […] A. […] [¹⁴C] Squalene was separated from unreacted substrate on thin layer chromatography plates and determined by liquid scintillation counting. Inhibition of squalene synthase was quantified by incubating rat liver homogenate with various concentrations of the test compound in the presence of [2-¹⁴C] farnesylpyrophosphate. The concentration of compound giving 50% inhibition of [¹⁴C] squalene production in a 30 minute assay was taken as the IC₅₀ value.

Where [1] appears, read: rat liver homogenate, [2-¹⁴C] farnesylpyrophosphate as substrate, 50% inhibition of [¹⁴C] squalene production in a 30 minute assay, read-out: IC₅₀.

For the compound `CCC(C)CC(C)CCC(=O)OC1C(O)C2(CCC(C)C(=O)CCc3ccccc3)OC(C(=O)O)C(O)(C(=O)O)C1(C(=O)O)O2` (stereo not drawn) [Example 21, [1S-[1α[3R*(S*)],3α,4β,5α,6α(4S*,6R*),7β]] 1-(3-Methyl-4-oxo-6-phenylhexyl)-4,6,7-trihydroxy-2,8-dioxabicyclo[3.2.1]octane-3,4,5-tricarboxylic acid, 6-(4,6-dimethyloctanoate)], the IC50 was < 100 nM.

For `CCC(C)CC(C)CCC(=O)OC1C(O)C2(CCC(C)=CC(C)Cc3ccccc3)OC(C(=O)O)C(O)(C(=O)O)C1(C(=O)O)O2` (mixture of isomers) [Example 15, [1S-[1α[(Z/E),5S*],3α,4β,5α,6α(4S*6R*),7β]] 1-(3,5-Dimethyl-6-phenyl-3-hexenyl)-4,6,7-trihydroxy-2,8-dioxabicyclo[3.2.1]octane-3,4,5-tricarboxylic acid, 6-(4,6-dimethyloctanoate)], the IC50 was < 100 nM.

Consider `CCC(C)CC(C)C=CC(=O)OC1C(O)C2(CCC(C)C(O)C(C)Cc3ccccc3)OC(C(=O)O)C(O)(C(=O)O)C1(C(=O)O)O2` (single isomer, unassigned) [Example 7, [1S-[1α[3R*(S*),4R*,5S*],3α,4β,5α,6α(2E,4R*,6R*),7β]] and [1S-[1α[3R*(S*),4S*,5S*],3α,4β,5α,6α(2E,4R*,6R*),7β]] 1-(4-Hydroxy-3,5-dimethyl-6-phenylhexyl)-4,6,7-trihydroxy-2,8-dioxabicyclo[3.2.1]octane-3,4,5-tricarboxylic acid, 6-(4,6-dimethyl-2-octenoate), isomer 1 and isomer 2], for which, under setting [1], the IC50 was < 100 nM.

For the compound `C=C(CC[C@]12O[C@H](C(=O)O)[C@@](O)(C(=O)O)[C@](C(=O)O)(O1)[C@H](OC(=O)/C=C/c1ccccc1)[C@H]2O)[C@@H](OC(C)=O)[C@H](C)Cc1ccccc1` (relative stereo) [Example 49, [1S-[1α(4R*,5S*),3α,4β,5α,6α(2E),7β]] 1-(4-Acetyloxy-5-methyl-3-methylene-6-phenylhexyl)-4,6,7-trihydroxy-2,8-dioxabicyclo[3.2.1]octane-3,4,5-tricarboxylic acid, 6-(3-phenyl-2-propenoate)], the IC50 is < 100 nM.

Consider `CCC(CC[C@]12O[C@H](C(=O)O)[C@@](O)(C(=O)O)[C@](C(=O)O)(O1)[C@H](OC(=O)/C=C/[C@@H](C)C[C@@H](C)CC)[C@H]2O)C(=O)[C@H](C)Cc1ccccc1` (relative stereo) [Example 10, [1S-[1α(3R*S*,5S*),3α,4β,5α,6α(2E,4R*,6R*),7β]] 1-(3-Ethyl-5-methyl-4-oxo-6-phenylhexyl)-4,6,7-trihydroxy-2,8-dioxabicyclo[3.2.1]octane-3,4,5-tricarboxylic acid, 6-(4,6-dimethyl-2-octenoate)], for which the IC50 is < 100 nM.

Take `CCC(C)CC(C)CCC(=O)OC1C(O)C2(CCCC(=O)C(C)Cc3ccccc3)OC(C(=O)O)C(O)(C(=O)O)C1(C(=O)O)O2` (stereo not drawn) [Example 20, [1S-[1α(5R*S*),3α,4β,5α,6α(4S*,6R*),7β]] 1-(5-Methyl-4-oxo-6-phenylhexyl)-4,6,7-trihydroxy-2,8-dioxabicyclo[3.2.1]octane-3,4,5-tricarboxylic acid, 6-(4,6-dimethyloctanoate)]: the IC50 was < 100 nM.

For `CCC(C)CC(C)/C=C/C(=O)OC1C(O)C2(CCC(C)C(O)C(C)Cc3ccccc3)OC(C(=O)O)C(O)(C(=O)O)C1(C(=O)O)O2` (single isomer, unassigned) [Example 8, [1S-[1α[3R*(S*),4R*(S*),5S*],3α,4β,5α,6α(2E,4R*,6R*),7β]] 1-(4-Hydroxy-3,5-dimethyl-6-phenylhexyl)-4,6,7-trihydroxy-2,8-dioxabicyclo[3.2.1]octane-3,4,5-tricarboxylic acid, 6-(4,6-dimethyl-2-octenoate), isomer 3 and isomer 4], the IC50 under setting [1] is < 100 nM.

Take `C=C(CCC12OC(C(=O)O)C(OC(C)=O)(C(=O)O)C(C(=O)O)(O1)C(OC(=O)C=CC(C)CC(C)CC)C2OC(C)=O)C(OC(C)=O)C(C)Cc1ccccc1` (stereo not drawn) [Example 25, [1S-[1α(4R*,5S*),3α,4β,5α,6α(2E,4R*,6R*),7β]] 1-(4-Acetyloxy-5-methyl-3-methylene-6-phenylhexyl)-4,7-diacetyloxy-6-hydroxy-2,8-dioxabicyclo[3.2.1]octane-3,4,5-tricarboxylic acid, 6-(4,6-dimethyl-2-octenoate)]: the IC50 is < 100 nM.

In the case of `C=C(CCC12OC(C(=O)O)C(O)(C(=O)O)C(C(=O)O)(O1)C(OC(=O)CCCCC(C)=O)C2O)C(OC(C)=O)C(C)Cc1ccccc1` (stereo not drawn) [Example 53, [1S-[1α(4R*,5S*),3α,4β,5α,6α,7β]] 1-(4-Acetyloxy-5-methyl-3-methylene-6-phenylhexyl)-4,6,7-trihydroxy-2,8-dioxabicyclo[3.2.1]octane-3,4,5-tricarboxylic acid, 6-(6-oxo-heptanoate)], the IC50 under setting [1] is < 100 nM.

Turning to `CCC(C)CC(C)/C=C/C(=O)OC1C(O)C2(CCC(C)C(=O)C(C)Cc3ccccc3)OC(C(=O)O)C(O)(C(=O)O)C1(C(=O)O)O2` (single isomer, unassigned) [Example 6, [1S-[1α[3R*(S*),5S*],3α,4β,5α,6α(2E,4R*,6R*),7β]] 1-(3,5-Dimethyl-4-oxo-6-phenylhexyl)-4,6,7-trihydroxy-2,8-dioxabicyclo[3.2.1]octane-3,4,5-tricarboxylic acid, 6-(4,6-dimethyl-2-octenoate), isomer 1 and isomer 2], the IC50 under setting [1] is < 100 nM.

As for `C=C(CC[C@]12O[C@H](C(=O)O)[C@@](O)(C(=O)O)[C@](C(=O)O)(O1)[C@H](OC(=O)CCCC(C)=O)[C@H]2O)[C@@H](OC(C)=O)[C@H](C)Cc1ccccc1` (relative stereo) [Example 51, [1S-[1α(4R*,5S*),3α,4β,5α,6α,7β]] 1-(4-Acetyloxy-5-methyl-3-methylene-6-phenylhexyl)-4,6,7-trihydroxy-2,8-dioxabicyclo[3.2.1]octane-3,4,5-tricarboxylic acid, 6-(5-oxo-hexanoate)], the IC50 was < 100 nM.

For the compound `CCC(C)CC(C)CCC(=O)OC1C(O)C2(CCCC(=O)CCc3ccccc3)OC(C(=O)O)C(O)(C(=O)O)C1(C(=O)O)O2` (stereo not drawn) [Example 19, [1S-[1α,3α,4β,5α,6α(4S*,6R*),7β]] 1-(4-Oxo-6-phenylhexyl)-4,6,7-trihydroxy-2,8-dioxabicyclo[3.2.1]octane-3,4,5-tricarboxylic acid, 6-(4,6-dimethyloctanoate)], the IC50 is < 100 nM.

In the case of `C=C(CCC12OC(C(=O)O)C(O)(C(=O)O)C(C(=O)O)(O1)C(OC(=O)C=CC(C)CC(C)CC)C2OC(=O)OC)C(OC(C)=O)C(C)Cc1ccccc1` (stereo not drawn) [Example 26, [1S-[1α(4R*,5S*),3α,4β,5α,6α(2E,4R*,6R*),7β]] 1-(4-Acetyloxy-5-methyl-3-methylene-6-phenylhexyl)-4,6-dihydroxy-7-[(methoxycarbonyl)oxy]-2,8-dioxabicyclo[3.2.1]octane-3,4,5-tricarboxylic acid, 6-(4,6-dimethyl-2-octenoate)], the IC50 is < 100 nM.

`CC[C@H](C)C[C@H](C)CCC(=O)O[C@@H]1[C@@H](O)[C@@]2(C/C=C(\C)[C@@H](O)[C@H](C)Cc3ccccc3)O[C@H](C(=O)O)[C@@](O)(C(=O)O)[C@]1(C(=O)O)O2` (relative stereo) [Example 14, [1S-[1α[(E),4R*,5S*],3α,4β,5α,6α(4S*,6R*),7β]] 1-(3,5-Dimethyl-4-hydroxy-6-phenyl-2-hexenyl)-4,6,7-trihydroxy-2,8-dioxabicyclo[3.2.1]octane-3,4,5-tricarboxylic acid, 6-(4,6-dimethyloctanoate)]: the IC50 is < 100 nM.

Consider `COC(=O)OC1C(O)C2(CCC(C)C(OC(C)=O)C(C)Cc3ccccc3)OC(C(=O)O)C(O)(C(=O)O)C1(C(=O)O)O2` (stereo not drawn) [Compound (I) in Example 65, [1S-[1α(3R*S*,4S*,5S*),3α,4β,5α,6α,7β]] 1-(4-Acetyloxy-3,5-dimethyl-6-phenylhexyl)-4,7-dihydroxy-6-[[(methoxycarbonyl]oxy]-2,8-dioxabicyclo[3.2.1]octane-3,4,5-tricarboxylic acid], for which the IC50 under setting [1] was < 100 nM.

For the compound `C=C(CC[C@]12O[C@H](C(=O)O)[C@@](O)(C(=O)O)[C@](C(=O)O)(O1)[C@H](OC(=O)c1ccccc1)[C@H]2O)[C@@H](OC(C)=O)[C@H](C)Cc1ccccc1` (relative stereo) [Example 47, [1S-[4α(4R*,5S*),3α,4β,5α,6α,7β]] 1-(4-Acetyloxy-5-methyl-3-methylene-6-phenylhexyl)-4,6,7-trihydroxy-2,8-dioxabicyclo[3.2.1]octane-3,4,5-tricarboxylic acid, 6-benzoate], the IC50 is < 100 nM.

As for `CC[C@H](C)C[C@H](C)/C=C/C(=O)O[C@@H]1[C@@H](O)[C@@]2(C/C=C(\C)[C@@H](O)[C@H](C)Cc3ccccc3)O[C@H](C(=O)O)[C@@](O)(C(=O)O)[C@]1(C(=O)O)O2` (relative stereo) [Example 5, [1S-[1α[(E),4R*,5S*],3α,4β,5α,6α(2E,4R*,6R*),7β]] 1-(4-Hydroxy-3,5-dimethyl-6-phenyl-2-hexenyl)-4,6,7-trihydroxy-2,8-dioxabicyclo[3.2.1]octane-3,4,5-tricarboxylic acid, 6-(4,6-dimethyl-2-octenoate)], the IC50 was < 100 nM.
